Here are results for ten molecules from US11203610B2, “2′3′ cyclic dinucleotides with phosphonate bond activating the sting adaptor protein” (INSTITUTE OF ORGANIC CHEMISTRY AND BIOCHEMISTRY ASCR, V.V.I., priority 2017, dated 2021).

In one experiment the target is T1, AQ STING (G230A-R293Q) (Homo sapiens, UniProt Q86WV6, G230A/H232R/R293Q).
T1 construct: truncated human WT STING or AQ STING (amino acid residues 140-343); 8xHis (N, cleaved yes); SUMO (N, cleaved yes); made in house; host or cells: E. coli Rosetta-gami B (DE3)
T1 sequence (Q86WV6 140-343 G230A/H232R/R293Q): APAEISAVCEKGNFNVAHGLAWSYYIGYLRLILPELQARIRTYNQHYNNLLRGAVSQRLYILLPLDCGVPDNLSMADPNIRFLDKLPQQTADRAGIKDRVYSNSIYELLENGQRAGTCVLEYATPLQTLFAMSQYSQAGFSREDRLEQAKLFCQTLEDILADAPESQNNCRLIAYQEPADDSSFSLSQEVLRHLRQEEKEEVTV
The experiment can be described thus: Differential Scanning Fluorimetry with AQ STING. The experiment is classed as binding. As to conditions: thermal shift vs STING apoprotein, 150 μM CDN, 0.1 mg/ml truncated human AQ STING, SYPRO Orange; for ΔTm at 150 µM: read-out: DSF ΔTm (° C.) AQ STING. On the procedure: (§1) WT STING and AQ STING Proteins
(§2) Purified PCR products were cleaved with restriction enzymes BamHI (cat. #R0136S, NEB, Ipswich, USA) and NotI (cat. #R0189S, NEB, Ipswich, USA) and cloned into the pSUMO vector linearized with the identical enzymes.
(§3) The resin was poured into a chromatography column, washed with 50 ml buffer A (50 mmol·l^−1 TrisCl (pH 8.0), 800 mmol·l^−1 NaCl, 3 mmol·l^−1 β-mercaptol; 10% glycerol; 20 mmol·l^−1 imidazole) and 8-His-SUMO tagged STING proteins were eluted with 15 ml buffer A containing 300 mmol·l^−1 imidazole. […] Proteins were concentrated with Amicon® Ultra-15 10 K device (cat. #UFC901008, Merck Millipore, Billerica, USA) and flash frozen in liquid N2.
(§4) Differential Scanning Fluorimetry with WT STING and AQ STING
(§5) 20 μL solutions of the reaction mixtures were pipetted in triplicates into 96 well optical reaction plates and thermal denaturation of samples were performed on real time PCR cycler (LightCycler® 480 Instrument II—Roche, Basel, Switzerland). The first derivative of the thermal denaturation curves was performed to calculate denaturing temperatures of STING—CDN complexes and STING apoproteins. The thermal shift for each CDN was calculated by subtracting the average denaturing temperature of STING apoprotein from the average denaturing temperature of STING CDN complex.

Experiment [1] concerns the target T2, WT STING (Homo sapiens, UniProt Q86WV6, H232R). The experiment is described as follows: Digitonin assay using 293T wtSTING-FL reporter cells. The experiment is classed as cell-based. As to conditions: 293T wtSTING-FL cells; 30 minutes in Digitonin buffer, then 5 hours; ISRE firefly luciferase reporter; 8-point dose-response curve; read-out: Digitonin assay EC50 (μmol · l^−1) WT STING. The source says:
ISRE Reporter Plasmid (pGL64.27-4xISRE)
Two complementary oligonucleotides of the sequence […] […] […] […] […] The oligonucleotides were mixed in equal molar amounts, hybridized, and cleaved by restriction endonucleases HindIII (cat. #. R0104S, NEB, Ipswich, USA) and BglII (cat. #R0144S, NEB, Ipswich, USA). Ultimately, they were ligated into plasmid pGL4.27 (cat. #E6651, Promega, Madison, USA) linearized with the same enzymes. As result the sequence with four ISRE sites was placed upstream of the minimum promoter of firefly luciferase reporter gene.
After 5 minutes incubation at room temperature (RT), 250 μL of the mixture was added dropwise to the cells in one well. Cells were incubated 36 hours at 37° C. with 5% CO2, and then detached with 0.05% Trypsin and 0.22 g/L EDTA (both cat. #L0941, Biowest, Riverside, USA).
Transfected cells were seeded onto poly-D-lysine coated six well plates at density 50,000 cells per 1 cm^2 in DMEM medium with high glucose containing 10% heat inactivated FBS, 30 g/mL blasticidin (cat. #ant-bl-05, InvivoGen, San Diego, USA), 0.06 mg/ml Penicillin G and 0.1 mg/ml Streptomycin Sulfate (both cat. #. L0018, Biowest, Riverside, USA). The medium was replenished every 3-4 days until visible colonies of cells resistant to blasticidin were formed.
Blasticidin resistant cells stably expressing WT STING were further transfected with […] plasmid following the same procedure as described above. […] Homogeneous culture of stably double transfected cells was prepared by limiting dilution of cells in 96 well plates and wells with cells were selected that originated from a single cell.
The medium was removed next day and three fold serial dilutions of compounds in Digitonin buffer containing 50 mmol·l^−1 HEPES (cat. #H3375, Sigma Aldrich, Czech Republic) pH 7.0, 100 mmol·l^−1 KCl, 3 mmol·l^−1 MgCl2, 0.1 mmol·l^−1 DTT (cat. #D0632, Sigma Aldrich, Czech Republic), 85 mmol·l^−1 Sucrose (cat. #S7903, Sigma Aldrich, Czech Republic), 0.2% BSA (cat. #A2153, Sigma Aldrich, Czech Republic), 1 mmol·l^−1 ATP (cat. #A1852, Sigma Aldrich, Czech Republic), 0.1 mmol·l^−1 GTP (cat. #G8877, Sigma Aldrich, Czech Republic), and 10 μg/mL Digitonin A (cat. #D141, Sigma Aldrich, Czech Republic) were added to the cells. The buffer was removed after 30 minutes incubation at 37° C. with 5% CO2, the cells were washed once with 100 μl of cultivation medium, and 100 μl of medium was added to each well. The plates with cells were incubated for 5 hours at 37° C. with 5% CO2, 50 μl of the medium was removed and 30 μl of ONE-Glo™ Luciferase Assay System reagent (cat. #E6120, Promega, Madison, USA) was added to each well. Luminescence was read on Synergy H1 (Biotek, Winooski, USA).
Target sequence in this assay (Q86WV6 whole entry H232R): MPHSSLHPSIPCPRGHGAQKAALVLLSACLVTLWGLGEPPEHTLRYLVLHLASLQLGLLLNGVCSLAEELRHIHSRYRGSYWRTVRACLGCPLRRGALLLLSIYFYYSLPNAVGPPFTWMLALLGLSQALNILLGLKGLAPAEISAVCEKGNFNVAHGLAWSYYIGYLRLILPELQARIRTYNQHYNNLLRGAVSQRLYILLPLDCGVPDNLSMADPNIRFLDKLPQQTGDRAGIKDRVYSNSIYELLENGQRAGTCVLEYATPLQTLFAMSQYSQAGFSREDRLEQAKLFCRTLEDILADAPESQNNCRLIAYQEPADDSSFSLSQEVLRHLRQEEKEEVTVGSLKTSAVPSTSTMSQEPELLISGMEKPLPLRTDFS

In experiment [2] the target is T2, WT STING. The experiment can be described thus: Differential Scanning Fluorimetry with WT STING. The experiment is classed as binding. Details: truncated human WT STING or AQ STING (amino acid residues 140-343); 8xHis (N, cleaved yes); SUMO (N, cleaved yes); made in house; host or cells: E. coli Rosetta-gami B (DE3). As to conditions: thermal shift vs STING apoprotein, 150 μM CDN, 0.1 mg/ml truncated human WT STING, SYPRO Orange; for ΔTm at 150 µM: read-out: DSF ΔTm (° C.) WT STING. On the procedure:
as §1, §2, §3, §4, §5
Target sequence in this assay (Q86WV6 140-343 H232R): as the sequence (Q86WV6 140-343 G230A/H232R/R293Q) above, with A91G, Q154R counted along it

With `Nc1ncnc2c1ncn2[C@@H]1O[C@@H]2OCP(=O)(O)O[C@@H]3[C@H](O)[C@@H](COP(=O)(O)O[C@H]2[C@H]1O)C[C@H]3n1cnc2c(=O)[nH]cnc21` [Compound 59, (1S,6R,8R,9R,10S,15R,17R,18R)-8-(6-amino-9H-purin-9-yl)-3,9,12,18-tetrahydroxy-17-(6-oxo-6,9-dihydro-1H-purin-9-yl)-2,5,7,11,13-pentaoxa-3λ^5,12λ^5-diphosphatricyclo[13.2.1.0^6,10]octadecane-3,12-dione], the ΔTm (commonly the shift of the melting midpoint relative to a reference) at 150 µM was determined as 10 °C on AQ STING (G230A-R293Q) and 1.8 °C at WT STING [2]. At WT STING [1], the EC50 (usually the midpoint of the concentration-response curve) is 1100 nM.
For `Nc1nc2c(ncn2[C@@H]2O[C@@H]3OCP(=O)(O)O[C@H]4[C@H](O)[C@H](n5cnc6c(N)nc(F)nc65)O[C@@H]4COP(=O)(O)O[C@@H]2[C@@H]3O)c(=O)[nH]1` [Compound 52, (1R,6R,8R,9S,10S,15R,17R,18S)-8-(6-amino-2-fluoro-9H-purin-9-yl)-17-(2-amino-6-oxo-6,9-dihydro-1H-purin-9-yl)-3,9,12,18-tetrahydroxy-2,4,7,11,14,16-hexaoxa-3λ^5,12λ^5-diphosphatricyclo[13.2.1.0^6,10]octadecane-3,12-dione] the same measures were 20.1 °C, 13.9 °C and 30 nM.
Consider `Nc1nc2c(ncn2[C@@H]2O[C@@H]3COP(=O)(O)O[C@H]4[C@@H](O)[C@H](n5cnc6c(=O)[nH]c(N)nc65)O[C@@H]4COP(=O)(O)O[C@H]3[C@H]2O)c(=O)[nH]1` [3′3′c-di-GMP, reference compound], for which, at AQ STING (G230A-R293Q), the “DSF ΔTm (° C.) AQ STING” value turned out to be 7.7 °C. Besides, on WT STING [1], the EC50 stood at 5800 nM. Further, the “DSF ΔTm (° C.) WT STING” value at WT STING [2] is 2.6 °C.
The like results for “1R,6R,8R,9R,10R,15R,17R,18S)-8,17-bis(6-amino-9H-purin-9-yl)-9-fluoro-3,12,18-trihydroxy-2,4,7,11,14,16-hexaoxa-3λ^5,12λ^5-diphosphatricyclo[13.2.1.0^6,^10]octadecane-3,12-dione [Compound 34]” were, in that order, 8.5 °C, 700 nM and 2.6 °C.
Regarding `Nc1nc2c(ncn2[C@@H]2O[C@@H]3OCP(=O)(O)OC4C[C@H](n5cnc6c(N)nc(Cl)nc65)O[C@@H]4COP(=O)(O)OC2C3O)c(=O)[nH]1` (stereo partly drawn) [Compound 56, (1R,6R,8R,105,15R,17R,185)-8-(6-amino-2-chloro-9H-purin-9-yl)-17-(2-amino-6-oxo-6,9-dihydro-1H-purin-9-yl)-3,12,18-trihydroxy-2,4,7,11,14,16-hexaoxa-3λ^5,12λ^5-diphosphatricyclo[13.2.1.0^6,10]octadecane-3,12-dione], the results for the ΔTm at 150 µM on AQ STING (G230A-R293Q) and on WT STING [2] were 16.5 °C and 9.5 °C, respectively. Besides, the EC50 on WT STING [1] was 50 nM.
For `Nc1ncc2ncn([C@@H]3O[C@@H]4COP(=O)(O)O[C@@H]5[C@H](O)[C@@H](OCP(=O)(O)O[C@H]4[C@H]3O)O[C@H]5n3cnc4c(=O)[nH]c(N)nc43)c2n1` [Compound 48, (1R,6R,8R,9R,10S,15R,17R,18S)-17-(2-amino-6-oxo-6,9-dihydro-1H-purin-9-yl)-8-(2-amino-9H-purin-9-yl)-3,9,12,18-tetrahydroxy-2,4,7,11,14,16-hexaoxa-3λ^5,12λ^5-diphosphatricyclo[13.2.1.0^6,10]octadecane-3,12-dione] the same measures were 11.6 °C, 3.9 °C and 170 nM.
On to `C#Cc1cn([C@@H]2O[C@@H]3COP(=O)(O)O[C@@H]4[C@H](O)[C@@H](OCP(=O)(O)O[C@H]3[C@H]2O)O[C@H]4n2cnc3c(=O)[nH]c(N)nc32)c2ncnc(N)c12` [Compound 53, (1R,6R,8R,9R,10S,15R,17R,18S)-8-{4-amino-5-ethynyl-7H-pyrrolo[2,3-d]pyrimidin-7-yl}-17-(2-amino-6-oxo-6,9-dihydro-1H-purin-9-yl)-3,9,12,18-tetrahydroxy-2,4,7,11,14,16-hexaoxa-3λ^5,12λ^5-diphosphatricyclo[13.2.1.0^6,10]octadecane-3,12-dione], for which the ΔTm at 150 µM at AQ STING (G230A-R293Q) came out at 12.9 °C; on WT STING [2] it was 6.6 °C. The EC50 at WT STING [1] was determined as 40 nM.
For the molecule `Nc1nc2c(ncn2[C@@H]2O[C@@H]3COP(=O)(S)O[C@@H]4[C@@H](OCP(=O)(O)O[C@@H]2[C@@H]3O)O[C@@H](n2cnc3c(N)ncnc32)[C@@H]4O)c(=O)[nH]1` (stereo partly drawn) [Compound 39, (1R,6R,8R,9R,10S,15R,17R,18R)-17-(2-amino-6-oxo-6,9-dihydro-1H-purin-9-yl)-8-(6-amino-9H-purin-9-yl)-3,9,18-trihydroxy-12-sulfanyl-2,5,7,11,13,16-hexaoxa-3λ^5,12λ^5-diphosphatricyclo[13.2.1.0^6,10]octadecane-3,12-dione], the values for the shift in melting temperature (ΔTm) at 150 µM on AQ STING (G230A-R293Q) and on WT STING [2] were 17.2 °C and 11 °C, respectively. In addition, at WT STING [1], the EC50 was determined as 80 nM.
For `Nc1nc2c(ncn2[C@@H]2O[C@@H]3COP(=O)(O)O[C@@H]4[C@@H](OCP(=O)(O)O[C@@H]2[C@@H]3O)O[C@@H](n2cnc3c(N)ncnc32)[C@@H]4O)c(=O)[nH]1` [Compound 40, (1R,6R,8R,9R,10S,15R,17R,18R)-17-(2-amino-6-oxo-6,9-dihydro-1H-purin-9-yl)-8-(6-amino-9H-purin-9-yl)-3,9,12,18-tetrahydroxy-2,5,7,11,13,16-hexaoxa-3λ^5,12λ^5-diphosphatricyclo[13.2.1.0^6,10]octadecane-3,12-dione] the same measures were 18.7 °C, 10.8 °C and 20 nM.
The like results for `Nc1nc2c(ncn2[C@@H]2O[C@@H]3OCP(=O)(O)O[C@H]4C[C@H](n5cnc6c(N)ncnc65)O[C@@H]4COP(=O)(O)O[C@@H]2[C@@H]3O)c(=O)[nH]1` [Compound 55, (1R,6R,8R,10S,15R,17R,18S)-17-(2-amino-6-oxo-6,9-dihydro-1H-purin-9-yl)-8-(6-amino-9H-purin-9-yl)-3,12,18-trihydroxy-2,4,7,11,14,16-hexaoxa-3λ^5,12λ^5-diphosphatricyclo[13.2.1.0^6,10]octadecane-3,12-dione] were, in that order, 22.9 °C, 15.2 °C and 10 nM.
